The values below come from patent publication US4792547A, “Pyrazine-2-carboxamide derivatives useful in treating allergic disease” (priority 1985, dated 1988).

Where a name gives a salt, the structure may show the parent alone. Where only a bound is given, the exact number is not on record here.

One data set relates to mast cells. Kind of data set: Inhibitory effect on histamine release from sensitized rat peritoneal mast cells (DNP-As antigen challenge). The class given is cell-based, Wistar rats. Conditions: Mast cell; rat peritoneal cells passively sensitized with anti-DNP-As rat serum; compound 1 min before DNP-As; 37° C. On the procedure:
The inhibitory effect of histamine release was examined with the under method, while using disodium cromoglycate(II), tranilast (III), and TA-5707F(IV)as reference drugs. Mixed peritoneal cells obtained from male Wistar rats weighing 350-400 g were sensitized by incubating for 2 hr at 37° C. with anti-DNP-As rat serum (produced according to the method of Tada and Okumura [Tada, T. and Okmura, K.: J. Immunology, 106,1002 (1971)]. The cell suspension containing about 1×10^5 mast cells/ml was prepared in Hepes Tyrode buffer containing heparin (10 unit/ml ) and BSA (0.3%). This suspension was divided into 0.8 ml aliquots in separate polyethylene tubes. […] After incubation at 37° C. for 1 min, 0.1 ml of DNP-As solution (50μg/ml) were added, followed by incubation at 37° C. for 2 min. The reactio was terminated by adding 2 ml of the cold buffer. The supernatants were separated by centrifugation, the cell pellets were resuspended in 3 ml buffer and placed for 3 min in the heating block (100° C.) to release the residual histamine into cells. The histamine was quantitated using the spedrofluorometric technique of modified Shore's method. The IC 50 was obtained from the dose-response curve.
In general, IC50 refers to the concentration at which inhibition is half-maximal. Regarding `CNc1cncc(C(=O)Nc2nnn[nH]2)n1` [Example 2, 6-(Methylamino)-N-(1H-5-tetrazolyl)pyrazine-2-carboxamide], the IC50 worked out at 2.5 nM.

In the case of `CCNc1cncc(C(=O)Nc2nnn[nH]2)n1` [Example 3, 6-(Ethylamino)-N-(1H-5-tetrazolyl)pyrazine-2-carboxamide], the IC50 was found to be 2 nM.

`CCCNc1cncc(C(=O)Nc2nnn[nH]2)n1` [Example 4, 6-(n-Propylamino)-N-(1H-5-tetrazolyl)pyrazine-2-carboxamide]: the IC50 was 17 nM.

For the molecule `CC(C)Nc1cncc(C(=O)Nc2nnn[nH]2)n1` [Example 5, 6-(Isopropylamino)-N-(1H-5-tetrazolyl)pyrazine-2-carboxamide], the IC50 was 5 nM.

On to `CN(C)c1cncc(C(=O)Nc2nnn[nH]2)n1` [Example 6, 6-(Dimethylamino)-N-(1H-5-tetrazolyl)pyrazine-2-carboxamide], for which the IC50 is 0.47 nM.

In the case of `CCN(CC)c1cncc(C(=O)Nc2nnn[nH]2)n1` [Example 7, 6-(Diethylamino)-N-(1H-5-tetrazolyl)pyrazine-2-carboxamide], the IC50 is 15 nM.

As to `O=C(Nc1nnn[nH]1)c1cncc(N2CCCC2)n1` [Example 8 (free), 6-(1-Pyrrolidinyl)-N-(1H-5-tetrazolyl)pyrazine-2-carboxamide], the IC50 worked out at 1.2 nM.

`O=C(Nc1nnn[nH]1)c1cncc(N2CCCCC2)n1` [Example 9, 6-(1-Piperidinyl)-N-(1H-5-tetrazolyl)pyrazine-2-carboxamide]: the IC50 was 5.6 nM.

On to `O=C(Nc1nnn[nH]1)c1cncc(N2CCOCC2)n1` [Example 14, 6-(4-Morpholinyl)-N-(1H-5-tetrazolyl)pyrazine-2-carboxamide], for which the IC50 is 36 nM.

As to `CN1CCN(c2cncc(C(=O)Nc3nnn[nH]3)n2)CC1` [Example 15, 6-(4-Methyl-1-piperazinyl)-N-(1H-5-tetrazolyl)pyrazine-2-carboxamide hydrochloride hydrate], the IC50 was determined as 36 nM.

For the molecule `O=C(Nc1nnn[nH]1)c1cncc(Nc2ccccc2)n1` [Example 16, 6-(Phenylamino)-N-(1H-5-tetrazolyl)pyrazine-2-carboxamide], the IC50 stood at 0.062 nM.

As to `Cc1cccc(C(=O)Nc2nnn[nH]2)n1` [TA-5707F (IV), 6-methyl-N-(1H-5-tetrazolyl) pyridine-2-carboxamide, reference compound], the IC50 was 46 nM.

Regarding `O=C(O)c1cc(=O)c2c(OCC(O)COc3cccc4oc(C(=O)O)cc(=O)c34)cccc2o1` [disodium cromoglycate (II), disodium cromoglycate, reference compound], the IC50 was 190 nM.

On to `COc1ccc(/C=C/C(=O)Nc2ccccc2C(=O)O)cc1OC` [tranilast (III), tranilast, reference compound], for which the IC50 is 24000 nM.

Tested on in a further data set: not listed separately
Briefly: Acute toxicity test (oral). To be noted: mouse, in vivo, po. As to the method:
Male ICR mice 5 weeks old were used as 5 animals at a group. The compounds were administered orally at each dosage.
For orientation: LD50 means the dose expected to kill half of the subjects tested. A lower LD50 goes with a more toxic substance. On to `O=C(Nc1nnn[nH]1)c1cncc(N2CCCC2)n1.[Na]`, for which the LD50 is > 2000 mg/kg.

Staying with this data set, now noted: mouse, in vivo; male ICR mice 5 weeks old, oral.
Consider `O=C(Nc1nnn[nH]1)c1cncc(N2CCCC2)n1` [Example 8 (free), 6-(1-Pyrrolidinyl)-N-(1H-5-tetrazolyl)pyrazine-2-carboxamide], for which the LD50 was > 2000 mg/kg.

Tested on in another data set: not given
Experiment: not given
To be noted: daily dosage about 300 mg, oral; cited from earlier work.
As to `COc1ccc(/C=C/C(=O)Nc2ccccc2C(=O)O)cc1OC` [tranilast (III), tranilast, reference compound], the “side effects in the digestive system” value was “nausea, abdominal pain, and gastric discomfort”.

Still in this data set, the particulars now being: human, in vivo; cited from earlier work.
With `O=C(O)c1cc(=O)c2c(OCC(O)COc3cccc4oc(C(=O)O)cc(=O)c34)cccc2o1` [disodium cromoglycate (II), disodium cromoglycate, reference compound], the “physical discomfort in the throat” value is listed as “feeling of physical discomfort in the throat”.
